Reference: patent US10004701B2, “Methods and compositions for treating infection” (UNIVERSITY OF ROCHESTER, priority 2012, dated 2018)
Structures can show the parent of a compound that is named as a salt. Where two headings read alike, the source gives them in different places.

Columns and labels:
Assay in all cases: AK assay 384-well format, Prestwick library screening
[1] = tested on: E. faecium; type: cell-based, Enterococcus faecium; details: Enterococcus faecium, 3 h, 50 μM final drug concentration
[2] = tested on: S. aureus strain USA300-0114; type: cell-based, Staphylococcus aureus; details: Staphylococcus aureus, USA300, 3 h, 50 μM final drug concentration
[3] = tested on: K. pneumoniae; type: cell-based, Klebsiella pneumoniae; details: Klebsiella pneumoniae, 3 h, 50 μM final drug concentration
[4] = tested on: A. baumannii strain 98-37-09; type: cell-based, Acinetobacter baumannii; details: Acinetobacter baumannii, 983709, 3 h, 50 μM final drug concentration
[5] = tested on: P. aeruginosa; type: cell-based, Pseudomonas aeruginosa; details: Pseudomonas aeruginosa, 3 h, 50 μM final drug concentration
[6] = tested on: E. cloacae; type: cell-based, Enterobacter cloacae; details: Enterobacter cloacae, 3 h, 50 μM final drug concentration
[7] = tested on: E. coli; type: cell-based, Escherichia coli; details: Escherichia coli, 3 h, 50 μM final drug concentration
[8] = 384-well format, cutoff for positive-scoring molecules 3-fold increase, read-out: AK-based Prestwick Library Screening Results, E. faecium (increase in extracellular AK activity)
[9] = 384-well format, cutoff for positive-scoring molecules 3-fold increase, read-out: AK-based Prestwick Library Screening Results, S. aureus (increase in extracellular AK activity)
[10] = 384-well format, cutoff for positive-scoring molecules 3-fold increase, read-out: AK-based Prestwick Library Screening Results, K. pneumoniae (increase in extracellular AK activity)
[11] = 384-well format, cutoff for positive-scoring molecules 3-fold increase, read-out: AK-based Prestwick Library Screening Results, A. baumannii (increase in extracellular AK activity)
[12] = 384-well format, cutoff for positive-scoring molecules 3-fold increase, read-out: AK-based Prestwick Library Screening Results, P. aeruginosa (increase in extracellular AK activity)
[13] = 384-well format, cutoff for positive-scoring molecules 3-fold increase, read-out: AK-based Prestwick Library Screening Results, E. cloacae (increase in extracellular AK activity)
[14] = 384-well format, cutoff for positive-scoring molecules 3-fold increase, read-out: AK-based Prestwick Library Screening Results, E. coli (increase in extracellular AK activity)
[15] = planktonic, […], read-out: AK-based Prestwick Library Screening Results, E. faecium (fold increase in extracellular AK activity)
[16] = planktonic, […], read-out: AK-based Prestwick Library Screening Results, S. aureus (fold increase in extracellular AK activity)
[17] = planktonic, […], read-out: AK-based Prestwick Library Screening Results, K. pneumoniae (fold increase in extracellular AK activity)
[18] = planktonic, […], read-out: AK-based Prestwick Library Screening Results, A. baumannii (fold increase in extracellular AK activity)
[19] = planktonic, […], read-out: AK-based Prestwick Library Screening Results, P. aeruginosa (fold increase in extracellular AK activity)
[20] = planktonic, […], read-out: AK-based Prestwick Library Screening Results, E. cloacae (fold increase in extracellular AK activity)
[21] = planktonic, […], read-out: AK-based Prestwick Library Screening Results, E. coli (fold increase in extracellular AK activity)

SMILES: COc1ccc(C(=O)NCc2cccnc2)cc1C(=O)NCc1cccnc1 [Picotamide monohydrate]
- fold induction at 50 µM [1, 8]: 0.9
- fold induction at 50 µM [2, 9]: 0.7
- fold induction at 50 µM [3, 10]: 0.8
- fold induction at 50 µM [4, 11]: 0.9
- fold induction at 50 µM [5, 12]: 0.8
- fold induction at 50 µM [6, 13]: 1.2
- fold induction at 50 µM [7, 14]: 0.9

SMILES: C=C(C)[C@@H]1[C@H]2OC(=O)[C@@H]1[C@]1(O)C[C@H]3O[C@]34C(=O)O[C@H]2[C@]14C [Picrotoxinin]
- fold induction at 50 µM [1, 15]: 1
- fold induction at 50 µM [2, 16]: 0.6
- fold induction at 50 µM [3, 17]: 0.6
- fold induction at 50 µM [4, 18]: 0.7
- fold induction at 50 µM [5, 19]: 0.6
- fold induction at 50 µM [6, 20]: 0.7
- fold induction at 50 µM [7, 21]: 0.6

SMILES: CC[C@@H]1C(=O)OC[C@@H]1Cc1cncn1C [Pilocarpine nitrate]
- fold induction at 50 µM ([1]; planktonic, cutoff for positive 3-fold increase, read-out: AK-based Prestwick Library Screening Results, E. faecium (fold increase in extracellular AK activity)): 1.1
- fold induction at 50 µM ([2]; planktonic, cutoff for positive 3-fold increase, read-out: AK-based Prestwick Library Screening Results, S. aureus (fold increase in extracellular AK activity)): 1.3
- fold induction at 50 µM ([3]; planktonic, cutoff for positive 3-fold increase, read-out: AK-based Prestwick Library Screening Results, K. pneumoniae (fold increase in extracellular AK activity)): 0.9
- fold induction at 50 µM ([4]; planktonic, cutoff for positive 3-fold increase, read-out: AK-based Prestwick Library Screening Results, A. baumannii (fold increase in extracellular AK activity)): 1
- fold induction at 50 µM ([5]; planktonic, cutoff for positive 3-fold increase, read-out: AK-based Prestwick Library Screening Results, P. aeruginosa (fold increase in extracellular AK activity)): 1
- fold induction at 50 µM ([6]; planktonic, cutoff for positive 3-fold increase, read-out: AK-based Prestwick Library Screening Results, E. cloacae (fold increase in extracellular AK activity)): 1.5
- fold induction at 50 µM ([7]; planktonic, cutoff for positive 3-fold increase, read-out: AK-based Prestwick Library Screening Results, E. coli (fold increase in extracellular AK activity)): 1

SMILES: CN1CCC(=C2c3ccccc3Sc3ccccc32)CC1 [Pimethixene maleate]
- fold induction at 50 µM ([1]; planktonic E. faecium, 384-well, […], read-out: AK-based Prestwick Library Screening Results: E. faecium (increase in extracellular AK activity)): 1.1
- fold induction at 50 µM ([2]; planktonic S. aureus, 384-well, […], read-out: AK-based Prestwick Library Screening Results: S. aureus (increase in extracellular AK activity)): 0.9
- fold induction at 50 µM ([3]; planktonic K. pneumoniae, 384-well, […], read-out: AK-based Prestwick Library Screening Results: K. pneumoniae (increase in extracellular AK activity)): 1.2
- fold induction at 50 µM ([4]; planktonic A. baumannii, 384-well, […], read-out: AK-based Prestwick Library Screening Results: A. baumannii (increase in extracellular AK activity)): 1.1
- fold induction at 50 µM ([5]; planktonic P. aeruginosa, 384-well, […], read-out: AK-based Prestwick Library Screening Results: P. aeruginosa (increase in extracellular AK activity)): 1.1
- fold induction at 50 µM ([6]; planktonic E. cloacae, 384-well, […], read-out: AK-based Prestwick Library Screening Results: E. cloacae (increase in extracellular AK activity)): 1.4
- fold induction at 50 µM ([7]; planktonic E. coli, 384-well, […], read-out: AK-based Prestwick Library Screening Results: E. coli (increase in extracellular AK activity)): 1.4

SMILES: O=c1[nH]c2ccccc2n1C1CCN(CCCC(c2ccc(F)cc2)c2ccc(F)cc2)CC1 [Pimozide]
- fold induction at 50 µM ([1]; planktonic E. faecium, 384-well, cutoff for positive-scoring molecules 3-fold increase, read-out: AK-based Prestwick Library Screening Results: E. faecium (increase in extracellular AK activity)): 1.3
- fold induction at 50 µM ([2]; planktonic S. aureus, 384-well, cutoff for positive-scoring molecules 3-fold increase, read-out: AK-based Prestwick Library Screening Results: S. aureus (increase in extracellular AK activity)): 2.3
- fold induction at 50 µM ([3]; planktonic K. pneumoniae, 384-well, cutoff for positive-scoring molecules 3-fold increase, read-out: AK-based Prestwick Library Screening Results: K. pneumoniae (increase in extracellular AK activity)): 1.3
- fold induction at 50 µM ([4]; planktonic A. baumannii, 384-well, cutoff for positive-scoring molecules 3-fold increase, read-out: AK-based Prestwick Library Screening Results: A. baumannii (increase in extracellular AK activity)): 8.7
- fold induction at 50 µM ([5]; planktonic P. aeruginosa, 384-well, cutoff for positive-scoring molecules 3-fold increase, read-out: AK-based Prestwick Library Screening Results: P. aeruginosa (increase in extracellular AK activity)): 1.3
- fold induction at 50 µM ([6]; planktonic E. cloacae, 384-well, cutoff for positive-scoring molecules 3-fold increase, read-out: AK-based Prestwick Library Screening Results: E. cloacae (increase in extracellular AK activity)): 1.2
- fold induction at 50 µM ([7]; planktonic E. coli, 384-well, cutoff for positive-scoring molecules 3-fold increase, read-out: AK-based Prestwick Library Screening Results: E. coli (increase in extracellular AK activity)): 1.7

SMILES: CC(N/C(=N\C#N)Nc1ccncc1)C(C)(C)C (stereo not drawn) [Pinacidil]
- fold induction at 50 µM [1, 8]: 0.9
- fold induction at 50 µM [2, 9]: 0.5
- fold induction at 50 µM [3, 10]: 0.5
- fold induction at 50 µM [4, 11]: 0.5
- fold induction at 50 µM [5, 12]: 0.5
- fold induction at 50 µM [6, 13]: 0.6
- fold induction at 50 µM [7, 14]: 0.5

SMILES: CC(C)NCC(O)COc1cccc2[nH]ccc12 (stereo not drawn) [Pindolol]
- fold induction at 50 µM [1, 8]: 1
- fold induction at 50 µM [2, 9]: 0.5
- fold induction at 50 µM [3, 10]: 0.6
- fold induction at 50 µM [4, 11]: 0.5
- fold induction at 50 µM [5, 12]: 0.4
- fold induction at 50 µM [6, 13]: 0.4
- fold induction at 50 µM [7, 14]: 0.5

SMILES: CCn1cc(C(=O)O)c(=O)c2cnc(N3CCNCC3)nc21 [Pipemidic acid]
- fold induction at 50 µM [1, 15]: 1.1
- fold induction at 50 µM [2, 16]: 0.7
- fold induction at 50 µM [3, 17]: 1.7
- fold induction at 50 µM [4, 18]: 0.9
- fold induction at 50 µM [5, 19]: 0.9
- fold induction at 50 µM [6, 20]: 1
- fold induction at 50 µM [7, 21]: 14.7

SMILES: CC[N+]1(C)CCCC(OC(=O)C(O)(c2ccccc2)c2ccccc2)C1 (stereo not drawn) [Pipenzolate bromide]
- fold induction at 50 µM ([1]; planktonic, cutoff for positive-scoring molecules 3-fold increase, read-out: AK-based Prestwick Library Screening Results, E. faecium (fold increase in extracellular AK activity)): 0.9
- fold induction at 50 µM ([2]; planktonic, cutoff for positive-scoring molecules 3-fold increase, read-out: AK-based Prestwick Library Screening Results, S. aureus (fold increase in extracellular AK activity)): 0.8
- fold induction at 50 µM ([3]; planktonic, cutoff for positive-scoring molecules 3-fold increase, read-out: AK-based Prestwick Library Screening Results, K. pneumoniae (fold increase in extracellular AK activity)): 0.7
- fold induction at 50 µM ([4]; planktonic, cutoff for positive-scoring molecules 3-fold increase, read-out: AK-based Prestwick Library Screening Results, A. baumannii (fold increase in extracellular AK activity)): 0.7
- fold induction at 50 µM ([5]; planktonic, cutoff for positive-scoring molecules 3-fold increase, read-out: AK-based Prestwick Library Screening Results, P. aeruginosa (fold increase in extracellular AK activity)): 0.8
- fold induction at 50 µM ([6]; planktonic, cutoff for positive-scoring molecules 3-fold increase, read-out: AK-based Prestwick Library Screening Results, E. cloacae (fold increase in extracellular AK activity)): 0.9
- fold induction at 50 µM ([7]; planktonic, cutoff for positive-scoring molecules 3-fold increase, read-out: AK-based Prestwick Library Screening Results, E. coli (fold increase in extracellular AK activity)): 0.9
